In patent US11091472B2, “PI-kinase inhibitors with anti-infective activity” (The Board of Trustees of the Leland Stanford Junior …, priority 2016, dated 2021):

Legend:
PI3K p110g = PI3K p110g (Homo sapiens (Human), UniProt P48736); test: PI3K p110g kinase assay; assay type: biochemical; conditions: kinase activity
PI4KIIIB = PI4KIIIB (Bos taurus (Bovine), UniProt O02810); test: PI4KIIIβ kinase assay (immunoprecipitated HA-tagged enzyme, [γ-32P]-ATP); assay type: biochemical; conditions: kinase activity
Sequence of PI4KIIIB (O02810 whole entry): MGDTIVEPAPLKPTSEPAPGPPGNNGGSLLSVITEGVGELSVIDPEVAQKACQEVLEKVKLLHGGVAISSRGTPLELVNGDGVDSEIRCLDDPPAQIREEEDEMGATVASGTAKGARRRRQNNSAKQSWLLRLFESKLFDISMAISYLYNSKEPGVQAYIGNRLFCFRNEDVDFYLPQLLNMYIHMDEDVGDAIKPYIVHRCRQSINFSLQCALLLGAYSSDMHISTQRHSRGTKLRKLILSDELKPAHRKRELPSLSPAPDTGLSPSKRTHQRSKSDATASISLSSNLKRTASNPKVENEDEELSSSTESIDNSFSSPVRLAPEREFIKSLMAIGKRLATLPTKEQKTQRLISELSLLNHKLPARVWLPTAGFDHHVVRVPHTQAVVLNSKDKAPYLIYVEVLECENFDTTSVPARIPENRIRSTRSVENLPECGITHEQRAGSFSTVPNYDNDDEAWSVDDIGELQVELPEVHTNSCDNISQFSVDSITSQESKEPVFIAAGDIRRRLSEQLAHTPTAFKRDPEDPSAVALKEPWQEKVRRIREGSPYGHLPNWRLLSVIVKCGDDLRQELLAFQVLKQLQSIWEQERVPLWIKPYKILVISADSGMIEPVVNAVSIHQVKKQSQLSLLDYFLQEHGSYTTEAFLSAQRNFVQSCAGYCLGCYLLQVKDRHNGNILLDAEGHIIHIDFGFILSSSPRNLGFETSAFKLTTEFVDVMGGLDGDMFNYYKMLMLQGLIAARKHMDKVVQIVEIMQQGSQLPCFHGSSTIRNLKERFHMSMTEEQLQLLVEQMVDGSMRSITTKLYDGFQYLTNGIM

EV71 = EV71 antiviral assay; assay type: cell-based; conditions: Enterovirus A, Table 5
HRV = test: Rhinovirus antiviral assay; assay type: cell-based; conditions: Human rhinovirus sp.; Table 5

Sequence of PI3K p110g (P48736 whole entry): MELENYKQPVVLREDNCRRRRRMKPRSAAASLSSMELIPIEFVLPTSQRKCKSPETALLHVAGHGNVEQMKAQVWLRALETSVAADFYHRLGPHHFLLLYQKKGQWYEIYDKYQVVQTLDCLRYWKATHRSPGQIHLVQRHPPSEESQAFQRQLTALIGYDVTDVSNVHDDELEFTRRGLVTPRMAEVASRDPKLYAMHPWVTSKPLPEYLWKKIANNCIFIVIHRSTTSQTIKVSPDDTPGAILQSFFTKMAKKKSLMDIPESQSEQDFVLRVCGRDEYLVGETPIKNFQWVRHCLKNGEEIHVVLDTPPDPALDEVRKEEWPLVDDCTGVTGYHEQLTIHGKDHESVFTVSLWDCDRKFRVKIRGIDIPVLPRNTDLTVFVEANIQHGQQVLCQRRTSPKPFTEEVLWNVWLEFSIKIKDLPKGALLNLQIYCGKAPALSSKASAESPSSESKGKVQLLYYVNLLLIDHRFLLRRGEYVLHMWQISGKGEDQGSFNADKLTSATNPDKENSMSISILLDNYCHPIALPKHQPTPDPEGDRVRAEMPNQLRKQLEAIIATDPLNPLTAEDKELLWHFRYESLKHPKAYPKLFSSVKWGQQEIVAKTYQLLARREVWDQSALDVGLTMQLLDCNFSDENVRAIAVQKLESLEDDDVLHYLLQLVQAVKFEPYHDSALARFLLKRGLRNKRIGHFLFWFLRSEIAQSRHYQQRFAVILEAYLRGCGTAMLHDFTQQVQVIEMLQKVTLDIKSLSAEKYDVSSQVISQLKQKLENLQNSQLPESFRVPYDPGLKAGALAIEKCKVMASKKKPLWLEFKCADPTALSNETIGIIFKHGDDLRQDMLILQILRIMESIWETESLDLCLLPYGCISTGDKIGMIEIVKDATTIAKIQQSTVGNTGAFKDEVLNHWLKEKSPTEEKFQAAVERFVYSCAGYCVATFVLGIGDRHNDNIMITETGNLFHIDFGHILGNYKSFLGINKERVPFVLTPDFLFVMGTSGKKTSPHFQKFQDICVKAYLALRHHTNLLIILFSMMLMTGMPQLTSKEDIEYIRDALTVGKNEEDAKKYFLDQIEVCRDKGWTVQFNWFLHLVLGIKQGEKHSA

IC50 (PI3K p110g) [nM] | SMILES | IC50 (PI4KIIIB) [nM] | EC50 (EV71) [nM] | EC50 (HRV) [nM]
> 10000 | COc1ccc(-c2sc(NCCC3CCCCC3)nc2C)cc1S(=O)(=O)NC1CCC(O)C1 (stereo not drawn) [Compound S-214] |  |  | 
 | COc1ccc(-c2sc(NC(C)(C)C)nc2C)cc1S(=O)(=O)NC1CCNCC1 [Compound S-219] | < 100 |  | 
 | COc1ccc(-c2sc(NCC(C)C)nc2C)cc1S(=O)(=O)N[C@H]1CC[C@H](O)CC1 [Compound S-221] | < 100 |  | 
 | COc1ccc(-c2sc(NCC(C)C)nc2C)cc1S(=O)(=O)N[C@H]1CC[C@@H](O)CC1 [Compound S-222] | < 100 |  | 
 | COc1ccc(-c2sc(NC(=O)CC3CCOCC3)nc2C)cc1S(=O)(=O)Nc1cccc(C)c1 [Compound S-226] | < 100 |  | 
 | COc1ccc(-c2sc(NC(=O)CC3CCOCC3)nc2C)cc1S(=O)(=O)Nc1ccccc1F [Compound S-230] | < 100 |  | 
 | COc1ncc(-c2sc(NC(=O)CC3CCOCC3)nc2C)cc1S(=O)(=O)Nc1ccc(F)cc1F [Compound S-258] | 1000 to 10000 |  | 
 | COc1ccc(-c2sc(NC(C)C3CCOCC3)nc2C)cc1S(=O)(=O)Nc1ccccc1C (stereo not drawn) [Compound S-315] |  | 1 to 100 | 1 to 100
 | COc1ccc(-c2sc(NC(C)C3CCOCC3)nc2C)cc1S(=O)(=O)Nc1ccc(O)cc1C (stereo not drawn) [Compound S-317] |  | 1 to 100 | 1 to 100
 | COc1ccc(-c2sc(NC(C)C3CCOCC3)nc2C)cc1S(=O)(=O)Nc1ccc(O)cc1Cl (stereo not drawn) [Compound S-318] |  | < 1 | 1 to 100
 | COc1ccc(-c2sc(NC(C)C3CCOCC3)nc2C)cc1S(=O)(=O)Nc1ccc(O)cc1 (stereo not drawn) [Compound S-319] |  | 1 to 100 | 1 to 100
 | COc1ccc(-c2sc(NC(C)C3CCOCC3)nc2C)cc1S(=O)(=O)Nc1cccc(O)c1 (stereo not drawn) [Compound S-320] |  | 1 to 100 | 1 to 100
 | COc1ccc(-c2sc(NC(C)C3CCOCC3)nc2C)cc1S(=O)(=O)Nc1c(F)cccc1F (stereo not drawn) [Compound S-321] |  | 1 to 100 | 1 to 100
 | COc1ccc(-c2sc(NC(C)C3CCOCC3)nc2C)cc1S(=O)(=O)Nc1c(F)cccc1Cl (stereo not drawn) [Compound S-322] |  | 1 to 100 | 1 to 100
 | COc1ccc(-c2sc(NC(C)C3CCOCC3)nc2C)cc1S(=O)(=O)Nc1c(C)cccc1F (stereo not drawn) [Compound S-323] |  | < 1 | < 1
 | COC(=O)c1ccc(NS(=O)(=O)c2cc(-c3sc(NC(C)C4CCOCC4)nc3C)ccc2OC)cc1 (stereo not drawn) [Compound S-324] |  | 1 to 100 | 1 to 100

IC50 (PI3K p110g) [nM] | SMILES | IC50 (PI4KIIIB) [nM] | EC50 (EV71) [nM] | EC50 (HRV) [nM]
 | COc1ccc(-c2sc(NC(C)C3CCOCC3)nc2C)cc1S(=O)(=O)Nc1ccc(C(=O)O)cc1 (stereo not drawn) [Compound S-325] |  | 1000 to 10000 | 1000 to 10000
 | COc1ccc(-c2sc(NC(C)C3CCOCC3)nc2C)cc1S(=O)(=O)NC1CCNCC1 (stereo not drawn) [Compound S-326] |  | 1 to 100 | 100 to 1000
 | COc1ccc(-c2sc(NC(C)C3CCOCC3)nc2C)cc1S(=O)(=O)NC1CCC(OC(C)=O)CC1 (stereo not drawn) [Compound S-327] |  | 1 to 100 | 1 to 100
 | COc1ccc(-c2sc(NC(C)C3CCOCC3)nc2C)cc1S(=O)(=O)Nc1ncccc1C (stereo not drawn) [Compound S-329] |  | 1 to 100 | 1 to 100
 | COc1ccc(-c2sc(NC(C)C3CCOCC3)nc2C)cc1S(=O)(=O)Nc1ncccc1F (stereo not drawn) [Compound S-330] |  | 100 to 1000 | 1000 to 10000
 | COc1ccc(-c2sc(NC(C)C3CCOCC3)nc2C)cc1S(=O)(=O)Nc1cccnc1C (stereo not drawn) [Compound S-331] |  | 1 to 100 | 1 to 100
 | COc1ccc(-c2sc(NC(C)C3CCOCC3)nc2C)cc1S(=O)(=O)Nc1c(F)cncc1F (stereo not drawn) [Compound S-333] |  | 100 to 1000 | 100 to 1000
 | COc1ncc(-c2sc(NC(C)C3CCOCC3)nc2C)cc1S(=O)(=O)Nc1ccc(O)cc1F (stereo not drawn) [Compound S-334] |  | 1 to 100 | 1 to 100
 | COc1ncc(-c2sc(NC(C)C3CCOCC3)nc2C)cc1S(=O)(=O)Nc1ccccc1C (stereo not drawn) [Compound S-335] |  | 1 to 100 | 1 to 100
 | COc1ncc(-c2sc(NC(C)C3CCOCC3)nc2C)cc1S(=O)(=O)Nc1ccc(F)cc1F (stereo not drawn) [Compound S-336] |  | 1 to 100 | 1 to 100
 | COc1ncc(-c2sc(NC(C)C3CCOCC3)nc2C)cc1S(=O)(=O)Nc1ccc(F)cc1Cl (stereo not drawn) [Compound S-337] |  | 1 to 100 | 100 to 1000
 | COc1ncc(-c2sc(NC(C)C3CCOCC3)nc2C)cc1S(=O)(=O)Nc1ccc(F)cc1C (stereo not drawn) [Compound S-338] |  | 1 to 100 | 1 to 100
 | COc1ncc(-c2sc(NC(C)C3CCOCC3)nc2C)cc1S(=O)(=O)Nc1ccccc1F (stereo not drawn) [Compound S-339] |  | 1 to 100 | 1 to 100
 | COc1ncc(-c2sc(NC(C)C3CCOCC3)nc2C)cc1S(=O)(=O)Nc1ccc(O)cc1C (stereo not drawn) [Compound S-340] |  | 1 to 100 | 1 to 100
 | COc1ncc(-c2sc(NC(C)C3CCOCC3)nc2C)cc1S(=O)(=O)Nc1ccccc1Cl (stereo not drawn) [Compound S-341] |  | 1 to 100 | 1 to 100
 | COc1ncc(-c2sc(NC(C)C3CCOCC3)nc2C)cc1S(=O)(=O)Nc1ccc(O)cc1Cl (stereo not drawn) [Compound S-375] |  | 1 to 100 | 1 to 100
